Columns and labels:
[1] = tested on: MDA-MB231 cells that constitutively express large amount of eGFP-tk; details: cited from earlier work
[2] = tested on: ZR75-1 cells that constitutively express low amount of eGFP-tk; details: cited from earlier work
[3] = tested on: F1B-TMIR transfected CHO cells; experiment: Luciferase activity assay after GCV treatment (sensitivity to GCV, functioning HSV1Δtk); assay type: cell-based, Chinese hamster; details: low or high concentration of GCV (0.005 or 0.1 μg/ml), 72 h, normalized to β-gal
Method: FIG. 1. (A) Structure of the F1B-TMIR transgenic vector. The restriction sites mentioned in the construction method are shown. (B) Fluorescent pictures of CHO cells transiently transfected by F1B-TMIR vector. Scale bar=100 μm. (C) The luciferase activity in F1B-TMIR transfected CHO cells following the incubation with GCV. The data shown were the luciferase activity normalized to the β-gal activity from a co-transfected RSV-β-gal vector. Error bars represent mean+SEM, n=3, *P<0.05, compared to the untreated group.
Chinese hamster ovary […] (CHO-K1) were maintained in F-12 medium supplemented with 10% fetal bovine serum (FBS) and the antibiotics penicillin, streptomycin, and amophotericin B (PSA) in a 95% air and 5% CO2 humidified incubator. DNA vectors including a RSV β-galactosidase control vector for normalization of transfection efficiency were transfected into the cells using PolyFect (Qiagen) reagent by following manufacturer's protocol. […]
The TMIR vectors driven by CMV or F1B promoter were constructed as foregoing description. […] There was a decrease in the number of cells expressing GFP and in the intensity of fluorescence in F1B-TMIR transfected cells than cells transfected by CMV-TMIR (FIG. 1B) as a result of weaker transactivity by FIB promoter. […]

[4] = tested on: CMV-TMIR transfected CHO cells; experiment: as above; assay type: cell-based, Chinese hamster; details: low or high concentration of GCV (0.005 or 0.1 μg/ml), 72 h, normalized to β-gal
[5] = tested on: TMIR expressing tissues (HSV1Δtk) of F1B-TMIR mice; experiment: [131I]FIAU γ-camera imaging of F1B-TMIR transgenic mice; assay type: in vivo, mouse
Text: FIG. 4. […] Image of young female mice #7, #29 (Right) was shown for comparison.
Carrier-free [^131I] (2′-fluoro-2′-deoxy-1-β-D-arabinofuranosyl-5-iodouracil) ([^131I]FIAU) was synthesized from 5-trimethylstannyl-1-(2′-deoxy-2′-fluoro-1-β-D-arabinofuranosyl)-uracil (FTAU) by an oxidative iododestannylation method as previously described (Deng W P, Yang W K, Lai W F, et al. Non-invasive in vivo imaging with radiolabelled FIAU for monitoring cancer gene therapy using herpes simplex virus type 1 thymidine kinase and ganciclovir. Eur J Nucl Med Mol Imaging. January 2004; 31 (1):99-109). The radiochemical purity of [^131I]FIAU was >95%, as determined by thin layer chromatograph (TLC) method on a silica gel coated aluminum sheet using ethyl acetate-ethanol mixture (90:10, v/v) as the mobile phase. A Siemens E.CAM dual-head γ-camera, equipped with custom-made 1 mm pinhole collimator, was used for the animal γ-imaging. To block the thyroid uptake of radioiodine, mice were injected with sodium iodine saline (0.9% sodium iodine in normal saline, 1 ml/animal) 15 min prior to the intraperitoneal injection of 11.1 MBq [^131I] FIAU. The animal was laid in the prone position and 4 cm distant from the pinhole center to provide a full coverage of the body. […] The image was scanned one week after injection of probe to ensure adequate clearance of unwanted background radioactivity. […]

Structure (SMILES)	ED50 (the dose resulted in 50% of cell death after 7 days) [1]	ED50 (the dose resulted in 50% of cell death after 7 days) [2]	loss of luciferase activity [3]	loss of luciferase activity [4]	uptake at head (γ imaging) ([5]; F1B-TMIR mice #2, #7, #29, one week after probe injection)	uptake in testis (γ imaging) ([5]; male F1B-TMIR mice, one week after intraperitoneal injection of 11.1 MBq probe, absent in female mice)
Nc1nc(O)c2ncn(COC(CO)CO)c2n1 [GCV, Ganciclovir]	5 ng/mL	around 0.1 μg/ml	35%	45%	–	–
O=c1[nH]c(=O)n([C@@H]2O[C@H](CO)[C@@H](O)[C@@H]2F)cc1[131I] [[^131I]FIAU, [^131I] (2′-fluoro-2′-deoxy-1-β-D-arabinofuranosyl-5-iodouracil)]	–	–	–	–	low uptake	strong uptake
